Legend:
[1] = test system: pathogenic bacteria causing bacterial angular leaf spot in cucumbers; assay: In vitro bactericidal activity, bacterial angular leaf spot in cucumbers; type: cell-based, pseudomonas; conditions: read-out: inhibitory rate; for inhibition at 1 ppm: dosage 1 ppm; for inhibition at 5 ppm: dosage 5 ppm
[2] = test system: pathogenic bacteria causing bacterial wilt in tobacco; assay: whole plant or invertebrate; type: cell-based, ralstonia; conditions: read-out: inhibitory rate
[3] = test system: pathogenic bacteria causing black shank in potatoes; assay: In vitro bactericidal activity, black shank in potatoes; type: cell-based; conditions: read-out: inhibitory rate; for inhibition at 1 ppm: dosage 1 ppm; for inhibition at 5 ppm: dosage 5 ppm
[4] = test system: pathogenic bacteria causing stem rot in sweet potatoes; assay: In vitro bactericidal activity, stem rot in sweet potatoes; type: cell-based, dikia; conditions: read-out: inhibitory rate; for inhibition at 1 ppm: dosage 1 ppm; for inhibition at 5 ppm: dosage 5 ppm
[5] = test system: pathogenic bacteria causing bacterial blight in rice; assay: whole plant or invertebrate; type: cell-based, xanthomonas; conditions: read-out: inhibitory rate
[6] = test system: pathogenic bacteria causing fruit blotch in watermelons; assay: In vitro bactericidal activity, fruit blotch in watermelons; type: cell-based, acidovorax; conditions: read-out: inhibitory rate; for inhibition at 1 ppm: dosage 1 ppm; for inhibition at 5 ppm: dosage 5 ppm
[7] = test system: pathogenic bacteria causing black rot in Chinese cabbages; assay: In vitro bactericidal activity, black rot in Chinese cabbages; type: cell-based, xanthomonas; conditions: Xanthomonas, read-out: inhibitory rate; for inhibition at 1 ppm: dosage 1 ppm; for inhibition at 5 ppm: dosage 5 ppm
[8] = test system: pathogenic bacteria causing bacterial wilt in cassava; assay: organism not typed; type: cell-based; conditions: read-out: inhibitory rate
[9] = test system: pathogenic bacteria causing fire blight in pears; assay: In vitro bactericidal activity, fire blight in pears; type: cell-based, erwinia; conditions: Erwinia, read-out: inhibitory rate; for inhibition at 1 ppm: dosage 1 ppm; for inhibition at 5 ppm: dosage 5 ppm
[10] = test system: black shank in potatoes; assay: Living crops in vivo protective activity, potatoes (root irrigation); conditions: Solanum tuberosum, read-out: efficacy against black shank in potatoes; for pest or weed control at 5 ppm: dosage 5 ppm; for pest or weed control at 10 ppm: dosage 10 ppm
Method: Root irrigation was carried out on the potatoes for tests according to the designed concentration of the agents. The dosage for each plant was 200 mL and was kept consistent (also for the control). The black shank bacteria were inoculated on the second day after the application. The results were investigated according to the disease condition.

[11] = test system: indoor potted cucumber seedlings; assay: Effect of improving growth and development of crops; type: in vivo; set-up: Rate of growth rate increase (%): concentration or dose not given beside the values; conditions: versus blank control; for Rate of chlorophyll content increase (%) / Rate of leaf area increase (%): 14 days after application; for Rate of growth rate increase (%): plant height 14 days after application; for Rate of leaf area increase (%): second leaf
Procedure, shortened: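 Plant height and second-leaf length/width were measured before application and 14 days after; growth rate and its percent increase, leaf area and leaf-area increase were calculated from these. Chlorophyll was read with a SPAD chlorophyll meter and its increase rate derived.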

[12] = test system: cucumber seedlings; assay: Safety for plant growth after application; type: in vivo; conditions: dosage 200 ppm
Procedure, shortened: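 Safety to the crop is assessed on cucumber seedlings in indoor pots by tracking how treatment alters leaf area, chlorophyll level and height growth rate.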

[13] = test system: bacterial wilt in tobacco; assay: whole plant or invertebrate; conditions: Nicotiana tabacum, read-out: efficacy against bacterial wilt in tobacco
[14] = test system: stem rot in sweet potatoes; assay: whole plant or invertebrate; conditions: read-out: efficacy against stem rot in sweet potatoes
[15] = test system: bacterial blight in rice; assay: whole plant or invertebrate; conditions: Oryza sativa, read-out: efficacy against bacterial blight in rice
[16] = test system: fruit blotch in watermelons; assay: whole plant or invertebrate; conditions: read-out: efficacy against fruit blotch in watermelons
[17] = test system: soft rot in Chinese cabbages; assay: whole plant or invertebrate; conditions: 48 h, read-out: efficacy against soft rot in Chinese cabbages

Row | SMILES | inhibition at 1 ppm [1] [%] | inhibition at 5 ppm [1] [%] | inhibition at 1 ppm [2] [%] | inhibition at 5 ppm [2] [%] | inhibition at 1 ppm [3] [%] | inhibition at 5 ppm [3] [%] | inhibition at 1 ppm [4] [%] | inhibition at 5 ppm [4] [%] | inhibition at 1 ppm [5] [%] | inhibition at 5 ppm [5] [%] | inhibition at 1 ppm [6] [%] | inhibition at 5 ppm [6] [%] | inhibition at 1 ppm [7] [%] | inhibition at 5 ppm [7] [%] | inhibition at 1 ppm [8] [%] | inhibition at 5 ppm [8] [%] | inhibition at 1 ppm [9] [%] | inhibition at 5 ppm [9] [%] | pest or weed control at 5 ppm [10] [%] | pest or weed control at 10 ppm [10] [%] | further results
1 | CCOc1cc2c(cc1F)c(=O)c(C(=O)OCCCOC)cn2C1CC1 [Compound 315] | ≥ 90 | ≥ 90 | ≥ 90 | ≥ 90 | ≥ 90 | ≥ 90 | ≥ 90 | ≥ 90 | ≥ 90 | ≥ 90 | ≥ 90 | ≥ 90 | ≥ 90 | ≥ 90 | ≥ 90 | ≥ 90 | ≥ 90 | ≥ 90 | ≥ 90 | ≥ 90 | Rate of chlorophyll content increase (%) [11]: 12%; Rate of growth rate increase (%) [11]: 9%; Rate of leaf area increase (%) [11]: 11%; safety for plant growth (discoloration, necrosis, wilt, malformation) [12]: safe for plant growth; pest or weed control at 5 ppm [13]: ≥ 90%; pest or weed control at 10 ppm [13]: ≥ 90%; pest or weed control at 5 ppm [14]: ≥ 90%; pest or weed control at 10 ppm [14]: ≥ 90%; pest or weed control at 5 ppm [15]: ≥ 90%; pest or weed control at 10 ppm [15]: ≥ 90%; pest or weed control at 5 ppm [16]: ≥ 90%; pest or weed control at 10 ppm [16]: ≥ 90%; pest or weed control at 5 ppm [17]: ≥ 90%; pest or weed control at 10 ppm [17]: ≥ 90%
2 | CCNc1cc2c(cc1F)c(=O)c(C(=O)OCCOC)cn2C1CC1 [Compound 408] | ≥ 90 | ≥ 90 | ≥ 90 | ≥ 90 | ≥ 90 | ≥ 90 | ≥ 90 | ≥ 90 | ≥ 90 | ≥ 90 | ≥ 90 | ≥ 90 | ≥ 90 | ≥ 90 | ≥ 90 | ≥ 90 | ≥ 90 | ≥ 90 | ≥ 90 | ≥ 90 | Rate of chlorophyll content increase (%) [11]: 18%; Rate of growth rate increase (%) [11]: 12%; Rate of leaf area increase (%) [11]: 12%; safety for plant growth (discoloration, necrosis, wilt, malformation) [12]: safe for plant growth; pest or weed control at 5 ppm [13]: ≥ 90%; pest or weed control at 10 ppm [13]: ≥ 90%; pest or weed control at 5 ppm [14]: ≥ 90%; pest or weed control at 10 ppm [14]: ≥ 90%; pest or weed control at 5 ppm [15]: ≥ 90%; pest or weed control at 10 ppm [15]: ≥ 90%; pest or weed control at 5 ppm [16]: ≥ 90%; pest or weed control at 10 ppm [16]: ≥ 90%; pest or weed control at 5 ppm [17]: ≥ 90%; pest or weed control at 10 ppm [17]: ≥ 90%

From patent US20250313533A1, “QUINOLINE CARBOXYLIC ACID ESTER COMPOUND AND PREPARATION METHOD AND USE THEREOF” (priority 2019, published 2025)
